From US20250340552A1, “COMPOUNDS, COMPOSITIONS AND METHODS OF TREATING DISORDERS” (HOTSPOT THERAPEUTICS, INC., priority 2022, published 2025)
Read-outs that look alike come from different tables or passages of the source.

Target: T1, Cbl-B (Homo sapiens, UniProt Q13191)
T1 construct: MSD-Based Assay for Degradation of Cbl-B in THP-1 Cells; endogenous in cells; host or cells: THP-1 (title) / Jurkat (protocol text)
Experiment: MSD-based assay for degradation of Cbl-B in THP-1 cells
Assay type: cell-based
Summary of the method: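 THP-1 cells were treated with compound for 24 h at 37 °C. Cbl-B in lysates was quantified by MSD sandwich immunoassay, with anti-Cbl-B capture antibody at 1 ug/mL and SULFO-TAG anti-rabbit detection. Maximal degradation (Dmax) was binned as A >70%, B 50–70%, C 30–50%, D <30%.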

[1] = Cbl-B degradation, Jurkat cells seeded (heading: THP-1 cells), 24 hours incubation, MSD readout
[2] = Cbl-B degradation, Jurkat cells seeded (heading: THP-1 cells), 24 hours incubation, MSD readout, read-out: Dmax

T1 sequence (Q13191 whole entry): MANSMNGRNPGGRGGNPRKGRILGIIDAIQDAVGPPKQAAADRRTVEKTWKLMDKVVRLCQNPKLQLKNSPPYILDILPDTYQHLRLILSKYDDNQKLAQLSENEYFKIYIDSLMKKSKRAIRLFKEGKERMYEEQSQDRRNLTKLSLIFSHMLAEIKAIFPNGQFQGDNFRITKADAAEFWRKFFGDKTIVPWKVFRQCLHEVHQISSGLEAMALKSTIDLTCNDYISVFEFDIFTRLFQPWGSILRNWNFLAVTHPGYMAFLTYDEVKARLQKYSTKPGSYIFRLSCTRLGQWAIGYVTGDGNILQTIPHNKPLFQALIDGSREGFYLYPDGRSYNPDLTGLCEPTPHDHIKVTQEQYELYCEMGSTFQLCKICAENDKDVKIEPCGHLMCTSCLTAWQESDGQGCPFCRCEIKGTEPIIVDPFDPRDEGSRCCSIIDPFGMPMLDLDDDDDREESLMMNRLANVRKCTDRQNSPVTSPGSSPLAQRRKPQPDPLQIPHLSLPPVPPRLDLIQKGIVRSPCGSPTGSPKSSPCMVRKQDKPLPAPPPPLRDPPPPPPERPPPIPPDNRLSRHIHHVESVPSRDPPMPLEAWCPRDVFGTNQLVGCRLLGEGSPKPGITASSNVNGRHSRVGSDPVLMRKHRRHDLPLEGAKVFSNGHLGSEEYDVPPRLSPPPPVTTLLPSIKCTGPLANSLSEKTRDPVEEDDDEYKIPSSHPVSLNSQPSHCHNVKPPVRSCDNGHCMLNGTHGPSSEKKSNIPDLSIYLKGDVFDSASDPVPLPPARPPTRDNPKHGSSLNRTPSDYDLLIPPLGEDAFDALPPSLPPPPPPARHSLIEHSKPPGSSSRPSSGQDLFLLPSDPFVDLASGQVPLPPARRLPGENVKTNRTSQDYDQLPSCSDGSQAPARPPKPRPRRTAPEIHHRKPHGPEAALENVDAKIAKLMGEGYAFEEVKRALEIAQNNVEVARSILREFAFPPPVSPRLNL

SMILES | DC50 [1] | Dmax [2] | Dmax (THP-1)
Cn1cnnc1CC1(c2cccc(-n3cc4c(C(F)(F)F)cc(CN5CCC(COCc6ccc(CN7CCN(c8ccc9c(c8)CN([C@@H]8CCC(=O)NC8=O)C9=O)CC7)cc6)CC5)cn4c3=O)c2)COC1 [Compound 215] | 1 to 10 µM | < 30% | –
Cn1cnnc1CC1(c2cccc(-n3cc4c(C(F)(F)F)cc(CN5CCC(COCc6ccc(CN7CCN(c8ccc9c(c8)CN([C@H]8CCC(=O)NC8=O)C9=O)CC7)cc6)CC5)cn4c3=O)c2)COC1 [Compound 216] | < 0.03 µM | > 70% | –
CO[C@H]1C[C@](c2cccc(-n3cc4c(C(F)(F)F)cc(CN5CCC(OCCOCc6ccc(CN7CCN(c8ccc9c(c8)CN([C@@H]8CCC(=O)NC8=O)C9=O)CC7)cc6)CC5)cn4c3=O)c2)(c2nncn2C)C1 [Compound 221] | 0.3 to 1 µM | 30 to 50% | –
CO[C@H]1C[C@](c2cccc(-n3cc4c(C(F)(F)F)cc(CN5CCC(OCCOCc6ccc(CN7CCN(c8ccc9c(c8)CN([C@H]8CCC(=O)NC8=O)C9=O)CC7)cc6)CC5)cn4c3=O)c2)(c2nncn2C)C1 [Compound 222] | < 0.03 µM | > 70% | –
CO[C@H]1C[C@](c2cccc(-n3cc4c(C(F)(F)F)cc(CN5CCC(COCc6ccc(CN7CCN(c8ccc9c(c8)CN([C@@H]8CCC(=O)NC8=O)C9=O)CC7)cc6)CC5)cn4c3=O)c2)(c2nncn2C)C1 [Compound 223] | 0.03 to 0.3 µM | 30 to 50% | –
Cn1cnnc1[C@@H](c1cccc(-n2cc3c(C(F)(F)F)cc(CN4CCC[C@H](COCc5ccc(CN6CCN(c7ccc8c(c7)CN([C@@H]7CCC(=O)NC7=O)C8=O)CC6)cc5)C4)cn3c2=O)c1)C1CCC1 [Compound 235] | – | – | 30 to 50%
Cn1cnnc1[C@@H](c1cccc(-n2cc3c(C(F)(F)F)cc(CN4CCC(OC(=O)N5CCC(CN6CCN(c7ccc8c(c7)CN([C@@H]7CCC(=O)NC7=O)C8=O)CC6)CC5)CC4)cn3c2=O)c1)C1CCC1 [Compound 237] | 0.03 to 0.3 µM | – | 50 to 70%
Cn1cnnc1[C@@H](c1cccc(-n2cc3c(C(F)(F)F)cc(CN4CCC(OC(=O)N5CCC(CN6CCN(c7ccc8c(c7)CN([C@H]7CCC(=O)NC7=O)C8=O)CC6)CC5)CC4)cn3c2=O)c1)C1CCC1 [Compound 238] | < 0.03 µM | – | > 70%
Cn1cnnc1CC1(c2cccc(-n3cc4c(C(F)(F)F)cc(CN5CCC(CC(=O)N6CCC(CN7CCN(c8ccc9c(c8)CN([C@@H]8CCC(=O)NC8=O)C9=O)CC7)CC6)CC5)cn4c3=O)c2)COC1 [Compound 255] | 0.03 to 0.3 µM | > 70% | –
Cn1cnnc1CC1(c2cccc(-n3cc4c(C(F)(F)F)cc(CN5CCC(CC(=O)N6CCC(CN7CCN(c8ccc9c(c8)CN([C@H]8CCC(=O)NC8=O)C9=O)CC7)CC6)CC5)cn4c3=O)c2)COC1 [Compound 256] | < 0.03 µM | – | > 70%
Cn1cnnc1CC1(c2cccc(-n3cc4c(C(F)(F)F)cc(CN5CCC(C6CCN(C(=O)c7ccc(N8CCN(c9ccc%10c(c9)CN([C@@H]9CCC(=O)NC9=O)C%10=O)CC8)cc7)CC6)CC5)cn4c3=O)c2)COC1 [Compound 261] | < 0.03 µM | – | > 70%
Cn1cnnc1CC1(c2cccc(-n3cc4c(C(F)(F)F)cc(CN5CCC(C6CCN(C(=O)c7ccc(N8CCN(c9ccc%10c(c9)CN([C@H]9CCC(=O)NC9=O)C%10=O)CC8)cc7)CC6)CC5)cn4c3=O)c2)COC1 [Compound 262] | < 0.03 µM | – | > 70%

Now from value to compound, other results behind:

DC50 [1] | Dmax [2] | SMILES | Dmax (THP-1)
< 0.03 µM | 50 to 70% | CO[C@H]1C[C@](c2cccc(-n3cc4c(C(F)(F)F)cc(CN5CCC(COCc6ccc(CN7CCN(c8ccc9c(c8)CN([C@H]8CCC(=O)NC8=O)C9=O)CC7)cc6)CC5)cn4c3=O)c2)(c2nncn2C)C1 [Compound 224] | –
0.03 to 0.3 µM | 50 to 70% | Cn1cnnc1[C@@H](c1cccc(-n2cc3c(C(F)(F)F)cc(CN4CCN(CCc5ccc(C6CCN(c7ccc8c(c7)CN([C@@H]7CCC(=O)NC7=O)C8=O)CC6)cc5)CC4)cn3c2=O)c1)C1CCC1 [Compound 227] | –
< 0.03 µM | – | Cn1cnnc1CC1(c2cccc(-n3cc4c(C(F)(F)F)cc(CN5CCN(CCc6ccc(C7CCN(c8ccc9c(c8)CN([C@H]8CCC(=O)NC8=O)C9=O)CC7)cc6)CC5)cn4c3=O)c2)COC1 [Compound 230] | –
< 0.03 µM | 50 to 70% | CN(CC1CCN(Cc2cc(C(F)(F)F)c3cn(-c4cccc(C5(Cc6nncn6C)COC5)c4)c(=O)n3c2)CC1)C(=O)c1ccc(C2CCN(c3ccc4c(c3)CN([C@@H]3CCC(=O)NC3=O)C4=O)CC2)cc1 [Compound 241] | –
< 0.03 µM | > 70% | CN(CC1CCN(Cc2cc(C(F)(F)F)c3cn(-c4cccc(C5(Cc6nncn6C)COC5)c4)c(=O)n3c2)CC1)C(=O)c1ccc(C2CCN(c3ccc4c(c3)CN([C@H]3CCC(=O)NC3=O)C4=O)CC2)cc1 [Compound 242] | –
0.03 to 0.3 µM | > 70% | CO[C@H]1C[C@](c2cccc(-n3cc4c(C(F)(F)F)cc(CN5CCN(CCc6ccc(N7CCN(c8ccc9c(c8)CN([C@@H]8CCC(=O)NC8=O)C9=O)CC7)cc6)CC5)cn4c3=O)c2)(c2nncn2C)C1 [Compound 251] | –
< 0.03 µM | > 70% | CO[C@H]1C[C@](c2cccc(-n3cc4c(C(F)(F)F)cc(CN5CCN(CCc6ccc(N7CCN(c8ccc9c(c8)CN([C@H]8CCC(=O)NC8=O)C9=O)CC7)cc6)CC5)cn4c3=O)c2)(c2nncn2C)C1 [Compound 252] | –
0.03 to 0.3 µM | 30 to 50% | Cn1cnnc1CC1(c2cccc(-n3cc4c(C(F)(F)F)cc(CN5CCC(CCN6CCC(CC7CCN(c8ccc9c(c8)CN([C@H]8CCC(=O)NC8=O)C9=O)CC7)CC6)CC5)cn4c3=O)c2)COC1 [Compound 260] | –
